Earlier results, collected in US20240108579A1, “UTIDELONE LIPOSOME COMPOSITION, AND PREPARATION METHOD THEREFOR AND USE THEREOF” (Chengdu Biostar Pharmaceuticals, LTD., priority 2021, published 2024).
Where two headings read alike, the source gives them in different places.

## CC1=CCC(C(C)=Cc2csc(C)n2)OC(=O)CC(O)C(C)(C)C(=O)C(C)C(O)C(C)CCC1 (stereo not drawn) [Utidelone, 4,8-dihydroxy-5,5,7,9,13-pentamethyl-16-[1-methyl-2-(2-methyl-thiazole-4-yl)-vinyl]-hexadecoxetane-13-en-2,6-one lactone]
ethanol, methanol, ethyl acetate, and chloroform
  solubility (in words): easily soluble
water
  saturated solubility in water: less than 1 μg/ml
  solubility (in words): insoluble
